Consider 27 molecules from patent US11384055B2 (BIOMARIN PHARMACEUTICAL INC., priority 2017, dated 2022).

A value given as a limit tells only on which side of the number the result lay.

The target in this test is T1, Human GO (Homo sapiens, UniProt Q9UJM8).
T1 construct: purchased Novus Biologicals NBP1-72412
T1 sequence (Q9UJM8 1-370): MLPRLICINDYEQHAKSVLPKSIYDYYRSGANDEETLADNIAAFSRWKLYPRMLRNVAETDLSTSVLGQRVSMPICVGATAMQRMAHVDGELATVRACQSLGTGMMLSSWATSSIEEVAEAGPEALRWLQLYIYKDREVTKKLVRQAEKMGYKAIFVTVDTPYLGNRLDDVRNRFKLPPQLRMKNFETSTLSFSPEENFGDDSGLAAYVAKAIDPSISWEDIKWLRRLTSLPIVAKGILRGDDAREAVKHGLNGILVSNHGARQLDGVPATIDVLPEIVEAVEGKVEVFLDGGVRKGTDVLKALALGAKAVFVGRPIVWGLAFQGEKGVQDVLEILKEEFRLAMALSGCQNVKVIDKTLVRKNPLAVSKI
The test can be described thus: GO enzymatic assay (coupled fluorescence/HRP assay, glycolate substrate). It counts as biochemical. Particulars: Table 2; read-out: Range (range of IC50 values calculated from the enzymatic assays). The gist of the method:
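Coupled HRP/fluorescence read-out of glycolate oxidation by human GO in 50 mM potassium phosphate buffer (pH 7). Inhibitors added across a concentration range.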

Consider `N#Cc1ccc(-c2ccc(Oc3nn[nH]c3C(=O)O)cc2)cc1` [Compound 225, 4-((4′-cyano-[1,1′-biphenyl]-4-yl)oxy)-1H-1,2,3-triazole-5-carboxylic acid], for which the IC50 is less than 100 nM.

With `CC(C)N1CCc2ccc(Oc3nn[nH]c3C(=O)O)cc2C1` [Compound 226, 4-((2-isopropyl-1,2,3,4-tetrahydroisoquinolin-7-yl)oxy)-1H-1,2,3-triazole-5-carboxylic acid 2,2,2-trifluoroacetate], the IC50 is 1000 to 10000 nM.

Turning to `O=C(O)c1[nH]nnc1OCc1ccc2cc(Cl)ccc2c1` [Compound 227, 4-((6-chloronaphthalen-2-yl)methoxy)-1H-1,2,3-triazole-5-carboxylic acid 2,2,2-trifluoroacetate], the IC50 is less than 100 nM.

With `O=C(O)c1[nH]nnc1Oc1ccc(-c2cccc(C3CCCCC3)c2)cc1` [Compound 228, 4-((3′-cyclohexyl-[1,1′-biphenyl]-4-yl)oxy)-1H-1,2,3-triazole-5-carboxylic acid], the IC50 was less than 100 nM.

For the molecule `O=C(O)c1c(Oc2ccc(Cl)c(Cl)c2)nnn1COC(=O)C1CCCCC1` [Compound 229, 1-(((cyclohexanecarbonyl)oxy)methyl)-4-(3,4-dichlorophenoxy)1H-1,2,3-triazole-5-carboxylic acid], the IC50 was 100 to 1000 nM.

`COCCOc1cccc(-c2ccc(Oc3nn[nH]c3C(=O)O)cc2)c1` [Compound 230, 4-((3′-(2-methoxyethoxy)-[1,1′-biphenyl]-4-yl)oxy)-1H-1,2,3-triazole-5-carboxylic acid]: the IC50 is less than 100 nM.

Consider `O=C(O)c1[nH]nnc1Oc1ccc2c(c1)OCCO2` [Compound 231, 4-((2,3-dihydrobenzo[b][1,4]dioxin-6-yl)oxy)-1H-1,2,3-triazole-5-carboxylic acid 2,2,2-trifluoroacetate], for which the IC50 was less than 100 nM.

Consider `O=C(O)c1[nH]nnc1Oc1ccc(-c2cccc(OCC3CC3)c2)cc1` [Compound 232, 4-((3′-(cyclopropylmethoxy)-[1,1′-biphenyl]-4-yl)oxy)-1H-1,2,3-triazole-5-carboxylic acid], for which the IC50 is less than 100 nM.

For the molecule `CC(=O)N1CCN(c2cccc(-c3ccc(Oc4nn[nH]c4C(=O)O)cc3)c2)CC1` [Compound 233, 4-((3′-(4-acetylpiperazin-1-yl)-[1,1′-biphenyl]-4-yl)oxy)-1H-1,2,3-triazole-5-carboxylic acid 2,2,2-trifluoroacetate], the IC50 was less than 100 nM.

For `COCCOc1ccc(-c2ccc(Oc3nn[nH]c3C(=O)O)cc2)cc1` [Compound 234, 4-((4′-(2-methoxyethoxy)-[1,1′-biphenyl]-4-yl)oxy)-1H-1,2,3-triazole-5-carboxylic acid], the IC50 is less than 100 nM.

As to `CC(=O)OCOC(=O)c1[nH]nnc1Oc1ccc2cc(Cl)ccc2c1` [Compound 235, acetoxymethyl 4-((6-chloronaphthalen-2-yl)oxy)-1H-1,2,3-triazole-5-carboxylate], the IC50 is less than 100 nM.

Take `O=C(O)c1[nH]nnc1Oc1ccc2cc(OC(F)F)ccc2c1` [Compound 236, 4-((6-(difluoromethoxy)naphthalen-2-yl)oxy)-1H-1,2,3-triazole-5-carboxylic acid]: the IC50 is less than 100 nM.

Turning to `O=C(O)c1[nH]nnc1OC1CCc2cc(F)c(F)cc2C1` (stereo not drawn) [Compound 237, 4-((6,7-difluoro-1,2,3,4-tetrahydronaphthalen-2-yl)oxy)-1H-1,2,3-triazole-5-carboxylic acid], the IC50 is less than 100 nM.

Take `O=C(O)c1[nH]nnc1Oc1ccc(-c2cccc(C3CCOCC3)c2)cc1` [Compound 238, 4-((3′-(tetrahydro-2H-pyran-4-yl)-[1,1′-biphenyl]-4-yl)oxy)-1H-1,2,3-triazole-5-carboxylic acid 2,2,2-trifluoroacetate]: the IC50 was less than 100 nM.

For `CC(C)C(=O)OCOC(=O)c1[nH]nnc1Oc1ccc2cc(Cl)ccc2c1` [Compound 239, (isobutyryloxy)methyl 4-((6-chloronaphthalen-2-yl)oxy)-1H-1,2,3-triazole-5-carboxylate], the IC50 was 100 to 1000 nM.

On to `CC(C)(C)OC(=O)N1CCCCC1C(=O)OCn1nnc(Oc2ccc(Cl)c(Cl)c2)c1C(=O)O` (stereo not drawn) [Compound 240, 1-(((1-(tert-butoxycarbonyl)piperidine-2-carbonyl)oxy)methyl)-4-(3,4-dichlorophenoxy)-1H-1,2,3-triazole-5-carboxylic acid], for which the IC50 was 1000 to 10000 nM.

For `O=C(O)c1[nH]nnc1OC1Cc2cc(Cl)c(Cl)cc2C1` [Compound 241, 4-((5,6-dichloro-2,3-dihydro-1H-inden-2-yl)oxy)-1H-1,2,3-triazole-5-carboxylic acid 2,2,2-trifluoroacetate], the IC50 is less than 100 nM.

Regarding `O=C(O)c1[nH]nnc1Oc1ccc(-c2ccc(C3CCOCC3)cc2)cc1` [Compound 242, 4-((4′-(tetrahydro-2H-pyran-4-yl)-[1,1′-biphenyl]-4-yl)oxy)-1H-1,2,3-triazole-5-carboxylic acid], the IC50 is less than 100 nM.

Consider `O=C(O)c1[nH]nnc1CSc1ccc(Cl)c(Cl)c1` [Compound 243, 4-(((3,4-dichlorophenyl)thio)methyl)-1H-1,2,3-triazole-5-carboxylic acid], for which the IC50 was less than 100 nM.

In the case of `CC(C)C(=O)OCOC(=O)c1[nH]nnc1Sc1ccc(-c2ccc(N3CCCCC3)cc2)cc1` [Compound 244, (isobutyryloxy)methyl 4-((4′-(piperidin-1-yl)-[1,1′-biphenyl]-4-yl)thio)-1H-1,2,3-triazole-5-carboxylate], the IC50 is 1000 to 10000 nM.

For `CC(C)N1CCCc2ccc(Oc3nn[nH]c3C(=O)O)cc21` [Compound 245, 4-((1-isopropyl-1,2,3,4-tetrahydroquinolin-7-yl)oxy)-1H-1,2,3-triazole-5-carboxylic acid 2,2,2-trifluoroacetate], the IC50 was 1000 to 10000 nM.

For the molecule `CN1CCN(c2cccc(-c3ccc(Oc4nn[nH]c4C(=O)O)cc3)c2)CC1` [Compound 246, 4-((3′-(4-methylpiperazin-1-yl)-[1,1′-biphenyl]-4-yl)oxy)-1H-1,2,3-triazole-5-carboxylic acid 2,2,2-trifluoroacetate], the IC50 was 100 to 1000 nM.

As for `O=C(O)c1[nH]nnc1Sc1ccc(-c2cccc(C3CCCCC3)c2)cc1` [Compound 247, 4-((3′-cyclohexyl-[1,1′-biphenyl]-4-yl)thio)-1H-1,2,3-triazole-5-carboxylic acid], the IC50 is less than 100 nM.

Regarding `O=C(OCOC(=O)c1[nH]nnc1Oc1ccc2cc(Cl)ccc2c1)c1ccccc1` [Compound 249, (benzoyloxy)methyl 4-((6-chloronaphthalen-2-yl)oxy)-1H-1,2,3-triazole-5-carboxylate], the IC50 was 1000 to 10000 nM.

For the molecule `O=C(O)c1[nH]nnc1Oc1ccc(-c2ccc3cccnc3c2)cc1` [Compound 250, 4-(4-(quinolin-7-yl)phenoxy)-1H-1,2,3-triazole-5-carboxylic acid 2,2,2-trifluoroacetate], the IC50 is less than 100 nM.

In the case of `CC(C)(C)C(=O)OCOC(=O)c1[nH]nnc1Oc1ccc2cc(Cl)ccc2c1` [Compound 251, (pivaloyloxy)methyl 4-((6-chloronaphthalen-2-yl)oxy)-1H-1,2,3-triazole-5-carboxylate], the IC50 is 1000 to 10000 nM.

As for `CC(C)C(=O)OCOC(=O)c1[nH]nnc1Oc1ccc2c(c1)CCCC2` [Compound 252, (isobutyryloxy)methyl 4-((5,6,7,8-tetrahydronaphthalen-2-yl)oxy)-1H-1,2,3-triazole-5-carboxylate], the IC50 was 100 to 1000 nM.

What is called IC50 is the concentration at which inhibition is half-maximal.
